Reference: PubChem BioAssay AID330 (DTP/NCI, 2004)
Values joined by “and” are separate entries in the source; they are usually repeats but may differ in a detail not shown here. Equal values may be shown once. Inconclusive results and toxic doses are left out.

System: P388 leukemia ip, CD2F1 mice, survival T/C
Test: NCI In Vivo Anticancer Drug Screen. Data for tumor model P388 Leukemia (intraperitoneal) in CD2F1 (CDF1) mice
Details: endpoint: median survival time, higher = longer survival
Method in brief: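 Mice carrying the transplanted tumor received test compound or vehicle. Survival was recorded in each group, and the value is the treated-group measurement divided by that of the vehicle-treated control group.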

[1] = dose: 60.0 mg/kg/injection, schedule: Q01DX005 (ip), vehicle: saline with Tween-80
[2] = dose: 120.0 mg/kg/injection, schedule: Q01DX005 (ip), vehicle: saline with Tween-80
[3] = dose: 240.0 mg/kg/injection, schedule: Q01DX005 (ip), vehicle: saline with Tween-80
[4] = dose: 50.0 mg/kg/injection, schedule: Q01DX005 (ip), vehicle: saline with Tween-80
[5] = dose: 100.0 mg/kg/injection, schedule: Q01DX005 (ip), vehicle: saline with Tween-80
[6] = dose: 200.0 mg/kg/injection, schedule: Q01DX005 (ip), vehicle: saline with Tween-80
[7] = dose: 50.0 mg/kg/injection, schedule: Q01DX005 (ip), vehicle: Klucel (hydroxypropylcellulose) (HPC)
[8] = dose: 100.0 mg/kg/injection, schedule: Q01DX005 (ip), vehicle: Klucel (hydroxypropylcellulose) (HPC)
[9] = dose: 50.0 mg/kg/injection, schedule: Q01DX009 (ip), vehicle: saline with Tween-80
[10] = dose: 100.0 mg/kg/injection, schedule: Q01DX009 (ip), vehicle: saline with Tween-80

## O=[N+]([O-])c1ccc(N2CCN(Cc3ccccc3)CC2)c2c1no[n+]2[O-]
dose: 37.5 mg/kg/injection, schedule: Q04DX003 (ip), vehicle: saline
  T/C: 100 % of control
dose: 37.5 mg/kg/injection, schedule: Q04DX003 (ip), vehicle: suspension in saline
  T/C: 104 % of control
dose: 75.0 mg/kg/injection, schedule: Q04DX003 (ip), vehicle: saline
  T/C: 97 % of control
dose: 75.0 mg/kg/injection, schedule: Q04DX003 (ip), vehicle: suspension in saline
  T/C: 120 % of control
dose: 150.0 mg/kg/injection, schedule: Q04DX003 (ip), vehicle: saline
  T/C: 100 % of control
dose: 150.0 mg/kg/injection, schedule: Q04DX003 (ip), vehicle: suspension in saline
  T/C: 109 % of control
dose: 300.0 mg/kg/injection, schedule: Q04DX003 (ip), vehicle: saline
  T/C: 100 % of control
dose: 300.0 mg/kg/injection, schedule: Q04DX003 (ip), vehicle: suspension in saline
  T/C: 104 % of control

## C[C@]12CC[C@H](O)C[C@@H]1CC[C@@H]1[C@@H]2C(=O)C[C@@]2(C)[C@H]1CC[C@]2(O)C(=O)CBr
dose: 264.0 mg/kg/injection, schedule: Q04DX003 (ip), vehicle: saline with Tween-80
  T/C: 109 % of control
dose: 400.0 mg/kg/injection, schedule: Q04DX003 (ip), vehicle: saline with Tween-80
  T/C: 100 % of control
dose: 600.0 mg/kg/injection, schedule: Q04DX003 (ip), vehicle: saline with Tween-80
  T/C: 95 % of control

## CC(CC(C)C)=NC(C)CC(C)C (stereo not given)
dose: 50.0 mg/kg/injection, schedule: Q01DX005 (ip), vehicle: saline
  T/C: 97 % of control
dose: 100.0 mg/kg/injection, schedule: Q01DX005 (ip), vehicle: saline
  T/C: 95 % of control

## COc1cc2ccc3c[n+](C)ccc3c2cc1OC
dose: 6.25 mg/kg/injection, schedule: Q01DX009 (ip), vehicle: water
  T/C: 101 % of control and 103 % of control
dose: 12.5 mg/kg/injection, schedule: Q01DX009 (ip), vehicle: other
  T/C: 107 % of control
dose: 12.5 mg/kg/injection, schedule: Q01DX009 (ip), vehicle: water
  T/C: 114 % of control
dose: 25.0 mg/kg/injection, schedule: Q01DX009 (ip), vehicle: other
  T/C: 119 % of control
dose: 25.0 mg/kg/injection, schedule: Q01DX009 (ip), vehicle: water
  T/C: 116 % of control and 122 % of control
dose: 100.0 mg/kg/injection, schedule: Q01DX009 (ip), vehicle: water
  T/C: 108 % of control

## NC(CC(=O)O)P(=O)(O)O (stereo not given)
dose: 50.0 mg/kg/injection, schedule: Q01DX009 (ip), vehicle: saline
  T/C: 93 % of control
dose: 100.0 mg/kg/injection, schedule: Q01DX009 (ip), vehicle: saline
  T/C: 98 % of control
dose: 200.0 mg/kg/injection, schedule: Q01DX009 (ip), vehicle: saline
  T/C: 107 % of control

## CC[C@H](C)C(NC(=O)[C@H]1N=C(c2csc(C(O)Cc3ccccc3)n2)OC1C)C(=O)OC (stereo not given in full)
[1]
  T/C: 99 % of control
[2]
  T/C: 98 % of control
[3]
  T/C: 100 % of control

## CCOC(=O)Cc1csc(=S)n1Cc1ccccc1
[4]
  T/C: 103 % of control
[5]
  T/C: 108 % of control
[6]
  T/C: 95 % of control

## CC(=O)[O][Ge]([c]1ccccc1)([c]1ccccc1)[c]1ccccc1
dose: 50.0 mg/kg/injection, schedule: Q01DX009 (ip), vehicle: Klucel (hydroxypropylcellulose) (HPC)
  T/C: 107 % of control
dose: 100.0 mg/kg/injection, schedule: Q01DX009 (ip), vehicle: Klucel (hydroxypropylcellulose) (HPC)
  T/C: 107 % of control
dose: 200.0 mg/kg/injection, schedule: Q01DX009 (ip), vehicle: Klucel (hydroxypropylcellulose) (HPC)
  T/C: 107 % of control
dose: 400.0 mg/kg/injection, schedule: Q01DX009 (ip), vehicle: Klucel (hydroxypropylcellulose) (HPC)
  T/C: 96 % of control

## Cc1cc(Br)ccc1N=Nc1c(C)noc1C
dose: 100.0 mg/kg/injection, schedule: Q04DX002 (ip), vehicle: saline
  T/C: 104 % of control
dose: 200.0 mg/kg/injection, schedule: Q04DX002 (ip), vehicle: saline
  T/C: 104 % of control
dose: 400.0 mg/kg/injection, schedule: Q04DX002 (ip), vehicle: saline
  T/C: 101 % of control

## CCc1cccc(CC)c1N1C(=O)C=CC1=O
dose: 0.5 mg/kg/injection, schedule: Q01DX009 (ip), vehicle: Klucel (hydroxypropylcellulose) (HPC)
  T/C: 104 % of control
dose: 1.0 mg/kg/injection, schedule: Q01DX009 (ip), vehicle: Klucel (hydroxypropylcellulose) (HPC)
  T/C: 99 % of control
dose: 2.0 mg/kg/injection, schedule: Q01DX009 (ip), vehicle: Klucel (hydroxypropylcellulose) (HPC)
  T/C: 100 % of control
dose: 4.0 mg/kg/injection, schedule: Q01DX009 (ip), vehicle: Klucel (hydroxypropylcellulose) (HPC)
  T/C: 105 % of control
dose: 8.0 mg/kg/injection, schedule: Q01DX009 (ip), vehicle: Klucel (hydroxypropylcellulose) (HPC)
  T/C: 101 % of control
dose: 16.0 mg/kg/injection, schedule: Q01DX009 (ip), vehicle: Klucel (hydroxypropylcellulose) (HPC)
  T/C: 96 % of control

## CCCN(CCC)CC(C)(C)C(O)c1ccc(OC)c2ccccc12 (stereo not given)
dose: 25.0 mg/kg/injection, schedule: Q01DX005 (ip), vehicle: saline with Tween-80
  T/C: 110 % of control
[4]
  T/C: 108 % of control

## Oc1ccc(Nc2ccc3[nH]c4ccccc4c3c2)cc1
dose: 25.0 mg/kg/injection, schedule: Q01DX005 (ip), vehicle: Klucel (hydroxypropylcellulose) (HPC)
  T/C: 101 % of control
[7]
  T/C: 106 % of control
[8]
  T/C: 104 % of control

## C/C(N=NC(=S)N1CCCCCC1)=C1\C=CC=CN1O
[4]
  T/C: 106 % of control
[5]
  T/C: 108 % of control
[6]
  T/C: 110 % of control

## ClCCN(CCCl)c1ccc2c3c(cccc13)-c1ccccc1-2
dose: 25.0 mg/kg/injection, schedule: Q04DX003 (ip), vehicle: saline with Tween-80
  T/C: 104 % of control
[9]
  T/C: 154 % of control
[10]
  T/C: 186 % of control
dose: 132.0 mg/kg/injection, schedule: Q04DX003 (ip), vehicle: saline with Tween-80
  T/C: 159 % of control
dose: 200.0 mg/kg/injection, schedule: Q01DX009 (ip), vehicle: saline with Tween-80
  T/C: 86 % of control
dose: 200.0 mg/kg/injection, schedule: Q04DX003 (ip), vehicle: saline with Tween-80
  T/C: 177 % of control and 212 % of control
dose: 300.0 mg/kg/injection, schedule: Q04DX003 (ip), vehicle: saline with Tween-80
  T/C: 177 % of control

## O=C1CSC(c2cccc(O)c2O)N1c1nncs1 (stereo not given)
[1]
  T/C: 111 % of control
[2]
  T/C: 96 % of control
[3]
  T/C: 96 % of control

## COc1ccccc1OCC(=O)c1ccccc1
dose: 10.0 mg/kg/injection, schedule: Q01DX005 (ip), vehicle: Klucel (hydroxypropylcellulose) (HPC)
  T/C: 102 % of control
dose: 20.0 mg/kg/injection, schedule: Q01DX005 (ip), vehicle: Klucel (hydroxypropylcellulose) (HPC)
  T/C: 96 % of control
dose: 40.0 mg/kg/injection, schedule: Q01DX005 (ip), vehicle: Klucel (hydroxypropylcellulose) (HPC)
  T/C: 100 % of control

## O=C(Cc1ccc2c(c1)OCO2)c1ccc(O)cc1O
[1]
  T/C: 99 % of control
[2]
  T/C: 105 % of control
[3]
  T/C: 98 % of control

## CCOC(=O)CSc1nnc(-c2ccc3c(c2)OCO3)o1
dose: 62.5 mg/kg/injection, schedule: Q01DX001 (ip), vehicle: Klucel (hydroxypropylcellulose) (HPC)
  T/C: 102 % of control
dose: 125.0 mg/kg/injection, schedule: Q01DX001 (ip), vehicle: Klucel (hydroxypropylcellulose) (HPC)
  T/C: 105 % of control
dose: 250.0 mg/kg/injection, schedule: Q01DX001 (ip), vehicle: Klucel (hydroxypropylcellulose) (HPC)
  T/C: 108 % of control

## C(#CC12CC3CC(CC(C3)C1)C2)C12CC3CC(CC(C3)C1)C2
[7]
  T/C: 98 % of control
[8]
  T/C: 92 % of control
dose: 200.0 mg/kg/injection, schedule: Q01DX005 (ip), vehicle: Klucel (hydroxypropylcellulose) (HPC)
  T/C: 91 % of control

## C=C(NC(C)=O)C(=O)CCC(N)=O
dose: 5.0 mg/kg/injection, schedule: Q01DX009 (ip), vehicle: saline sonified
  T/C: 109 % of control
dose: 10.0 mg/kg/injection, schedule: Q01DX009 (ip), vehicle: saline sonified
  T/C: 109 % of control
dose: 20.0 mg/kg/injection, schedule: Q01DX009 (ip), vehicle: saline sonified
  T/C: 104 % of control

## CNC(=O)c1c(-c2ccc(F)cc2)noc1C
[1]
  T/C: 103 % of control
[2]
  T/C: 100 % of control
[3]
  T/C: 103 % of control

## O=C(N/N=C/c1ccccc1O)C(F)(F)F
[9]
  T/C: 86 % of control
[10]
  T/C: 86 % of control

## COC(=O)C(CO)Nc1ccccc1 (stereo not given)
[1]
  T/C: 103 % of control
[2]
  T/C: 99 % of control
[3]
  T/C: 96 % of control

## NC(=Nc1ccc(Cl)cc1)N/N=C/c1ccc2c(c1)Cc1ccccc1-2
dose: 25.0 mg/kg/injection, schedule: Q04DX002 (ip), vehicle: saline with Tween-80
  T/C: 106 % of control
dose: 50.0 mg/kg/injection, schedule: Q04DX002 (ip), vehicle: saline with Tween-80
  T/C: 106 % of control
dose: 100.0 mg/kg/injection, schedule: Q04DX002 (ip), vehicle: saline with Tween-80
  T/C: 107 % of control
